{"source": "patent US4313944A", "about": "“Cycloheptindoles, compositions and use” (Roussel Uclaf, priority 1980, dated 1982)", "key": {"mice": {"system": "mice", "assay": "Acute toxicity", "type": "in vivo", "conditions": "oral, maximum dose which did not cause mortality"}, "dopaminergic receptors": {"biological_target": "T1, dopaminergic receptors (Rattus norvegicus, UniProt P61169)", "T1 construct": "from tissue; host or cells: rat striatum (striated bodies), crude membrane preparation", "T1 sequence (P61169 whole entry)": "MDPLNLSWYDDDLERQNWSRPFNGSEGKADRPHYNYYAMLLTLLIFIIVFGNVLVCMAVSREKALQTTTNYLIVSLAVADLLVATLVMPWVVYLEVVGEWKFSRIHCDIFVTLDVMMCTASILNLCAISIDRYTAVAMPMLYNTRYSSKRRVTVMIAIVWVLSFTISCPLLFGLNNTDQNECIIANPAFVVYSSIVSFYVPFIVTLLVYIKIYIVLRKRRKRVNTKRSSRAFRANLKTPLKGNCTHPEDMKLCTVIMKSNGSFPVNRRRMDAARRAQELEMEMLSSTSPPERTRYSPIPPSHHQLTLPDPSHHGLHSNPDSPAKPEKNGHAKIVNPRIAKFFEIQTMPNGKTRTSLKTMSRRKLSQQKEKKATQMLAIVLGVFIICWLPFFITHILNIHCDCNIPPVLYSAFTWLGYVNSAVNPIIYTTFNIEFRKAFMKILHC", "assay": "Affinity for dopaminergic receptors (inhibition of spiroperidol 3H fixation)", "type": "binding", "conditions": "for fixation to dopaminergic receptors (in words): results of Table I; for IC50: spiroperidol 3H, rat striated bodies, 37° C., pH 7.3, 20 minutes, read-out: 50% inhibiting concentration", "experimental": "B. Affinity for dopaminergic receptors\nThe striated bodies taken from the brains of 6 male rats weighing about 150 g were homogenized at one 20th (weight/volume) in 0.32 M sucrose and the homogenized mixture was centrifuged at 1000 g for 10 minutes at 0° C., the surnageant was centrifuged at 30,000 g for 15 minutes at 4° C. The culot was taken up in 25 ml of buffered Tris HCl 50 mM with a pH of 7.7 and the mixture was centrifuged at 30,000 g for 15 minutes at 4° C. The new culot was taken up in 50 ml of buffered Krebs Tris HCl with a pH of 7.3 and the suspension was preincubated at 37° C. for 10 minutes and was then incubated for 20 minutes in a water bath at 37° C. in the presence of spiroperidol 3H, alone or with an excess of haloperidol or with increasing units of the product being tested. The incubated suspensions were filtered with Whatman GF/C and the filters were washed 3 times with 5 ml of buffered Tris HCl 50 mM. The radioactivity of the filters was measured by liquid scintillation and the curve of percentage of fixation of spiroperidol 3H as a function of concentration of test product was determined."}, "male mice": {"system": "male mice", "assay": "Hypobare anoxia study", "type": "in vivo", "conditions": "oral, 30 minutes before test, 90 mm Hg", "experimental": "Groups of 10 male mice weighing about 20 to 22 g were not fed for 5 hours and were placed in a hermetically sealed enclosure with a pressure of 90 mm Hg maintained by a pump to determine the time of their survival. […] The results of Table II show the increase of survival time expressed as a percentage of control animals."}, "[1]": {"system": "nigrostriatal dopaminergic bundle (6-hydroxydopamine unilateral lesion)", "assay": "Rotation behavior after unilateral injury of nigrostriatal bundle", "type": "in vivo, male rats", "conditions": "rats, intraperitoneal", "experimental": "A. Rotation behavior after unilateral injury of nigrostriatal bundle\nThe unilateral lesion was effected with male rats weighing about 220 g by unilateral injection into nigrostriatal dopaminergic bundle of 8 μg of 6-hydroxydopamine in a solution of 2 μg per μl by the method of Ungerstedt [Acta. Physiol. Scand., Vol. 82 (1971), supp. 367, p. 69-93]. In the animals, the direct dopaminergic agonists such as apomorphine administered generally induces a rotating behavior in the contralateral direction to the injured side. The test compounds were administered more than 5 weeks after the lesion and the rats were placed in an automatic rotometer which determine the number of rotations effected by each animal in 2 directions.\nThe products of Examples 1, 2 and 3 were intraperitoneally administered and the product of Example 1 provoked 337±99 contralateral rotations at a dose of 5 mg/kg, product of Example 2 provoked 364±50 contralateral rotations at a dose of 1 mg/kg and the product of Example 3 provoked 657±205 contralateral rotations at a dose of 0.1 mg/kg."}, "[2]": {"system": "ulcers in the stomachs of rats", "assay": "Antiulcerous activity (Shay ulcers by ligature of pylore)", "type": "in vivo", "conditions": "oral, about 16 hours after treatment", "description": "The technique used is described by Shay et al [Gastroenterology, Vol. 5 (1945), p. 43]. Ulcers were induced in the stomachs of rats by ligature of pylore. The animals were anesthesized with ether and a longitudinal incision of about 1 cm was made beneath the sternum, the glandular part of the stomach and the duodenum were taken out and a ligature was placed a few mm below the pylore. The muscular surface was left as it was and the skin was sutured by 2 clamps.\nThe animals received orally immediately after a dispersive or the test product in a volume of 0.5 ml/100 g and were kept without food or water until they were killed by carotidinal bleeding which was about 16 hours after treatment. Before removal of the stomach, a ligature was placed above the […]. The gastric liquid was collected to measure the pH and the stomach was then opened by a large curve, was rinsed with physiological serum and was spead out on millimetric paper for examination with a binocular lens. The gravity of the lesions was macroscopically evaluated on a scale of 0 to 4 for each stomach to determine for each group of rats the average intensity of ulcerations."}}, "note": "Structures can show the parent of a compound that is named as a salt."}
{"smiles": "CCCN1CCO[C@@H]2c3cccc4c3c(cn4C)CC[C@H]21", "note": "(relative stereo) [Example 5, (7a-R,S-trans) 4,6,7,7a,8,9,10,11a-octahydro-4-methyl-8-propyl-[1,4]-oxazino-[2',3'-4,5]cyclohept[1,2,3-c,d]indole hydrochloride]", "values": [{"measurement": "DL0", "setting": "mice", "value": 200, "unit": "mg/kg"}]}
{"smiles": "CCCN1CCO[C@@H]2c3cccc4[nH]cc(c34)CC[C@H]21", "note": "(relative stereo) [Example 3, (7a-R,S-trans)-4,6,7,7a,8,9,10,11a-octahydro-8-propyl-[1,4]-oxazino-[2',3'-4,5]cyclohept[1,2,3-c,d]indole hydrochloride]", "values": [{"measurement": "fixation to dopaminergic receptors (in words)", "setting": "dopaminergic receptors", "value": "do fix dopaminergic receptors"}, {"measurement": "IC50", "setting": "dopaminergic receptors", "value": 270, "unit": "nM"}, {"measurement": "DL0", "setting": "mice", "value": 100, "unit": "mg/kg"}, {"measurement": "% of increase of survival time", "setting": "male mice; dose 1 mg/kg", "value": 3, "unit": "%"}, {"measurement": "% of increase of survival time", "setting": "male mice; dose 5 mg/kg", "value": 102, "unit": "%"}, {"measurement": "% of increase of survival time", "setting": "male mice; dose 25 mg/kg", "value": 86, "unit": "%"}, {"measurement": "contralateral rotations", "setting": "[1]; 0.1 mg/kg", "value": "657±205", "unit": "contralateral rotations"}, {"measurement": "% protection against ulceration", "setting": "[2]; dose 5 mg/kg", "value": 51, "unit": "%"}, {"measurement": "% protection against ulceration", "setting": "[2]; dose 25 mg/kg", "value": 73, "unit": "%"}]}
{"smiles": "CCCN1CCO[C@@H]2c3cccc4[nH]c(Br)c(c34)CC[C@H]21", "note": "(relative stereo) [Example 4, (7a-R,S-trans) 5-bromo-4,6,7,7a,8,9,10,11a-octahydro-8-propyl-[1,4]-oxazino-[2',3'-4,5]cyclohept[1,2,3-c,d]indole hydrochloride]", "values": [{"measurement": "DL0", "setting": "mice", "value": "> 1000", "unit": "mg/kg"}]}
{"smiles": "c1cc2c3c(c[nH]c3c1)CC[C@H]1NCCO[C@H]21", "note": "(relative stereo) [Example 1, (7a R,S-trans)-4,6,7,7a,8,9,10,11a-octahydro-[1,4]-oxazino [2',3'-4,5]-cyclohept[1,2,3-c,d]-indole hydrochloride]", "values": [{"measurement": "fixation to dopaminergic receptors (in words)", "setting": "dopaminergic receptors", "value": "do fix dopaminergic receptors"}, {"measurement": "IC50", "setting": "dopaminergic receptors", "value": 10000, "unit": "nM"}, {"measurement": "DL0", "setting": "mice", "value": 200, "unit": "mg/kg"}, {"measurement": "% of increase of survival time", "setting": "male mice; dose 2 mg/kg", "value": 14, "unit": "%"}, {"measurement": "% of increase of survival time", "setting": "male mice; dose 10 mg/kg", "value": 51, "unit": "%"}, {"measurement": "% of increase of survival time", "setting": "male mice; dose 50 mg/kg", "value": 145, "unit": "%"}, {"measurement": "contralateral rotations", "setting": "[1]; 5 mg/kg", "value": "337±99", "unit": "contralateral rotations"}]}
{"smiles": "CN1CCO[C@@H]2c3cccc4[nH]cc(c34)CC[C@H]21", "note": "(relative stereo) [Example 2, (7a-R,S-trans) 8-methyl-4,6,7,7a,8,9,10,11a-octahydro-[1,4]-oxazino-[2',3'-4,5]cyclohept[1,2,3-c,d]indole hydrochloride]", "values": [{"measurement": "fixation to dopaminergic receptors (in words)", "setting": "dopaminergic receptors", "value": "do fix dopaminergic receptors"}, {"measurement": "IC50", "setting": "dopaminergic receptors", "value": 950, "unit": "nM"}, {"measurement": "DL0", "setting": "mice", "value": 100, "unit": "mg/kg"}, {"measurement": "% of increase of survival time", "setting": "male mice; dose 5 mg/kg", "value": 30, "unit": "%"}, {"measurement": "% of increase of survival time", "setting": "male mice; dose 25 mg/kg", "value": 64, "unit": "%"}, {"measurement": "contralateral rotations", "setting": "[1]; 1 mg/kg", "value": "364±50", "unit": "contralateral rotations"}]}
